Experimental data taken from publication PMC9585581, “Developing Photoaffinity Probes for Dopamine Receptor D2 to Determine Targets of Parkinson’s Disease Drugs” (ACS Chemical Neuroscience, 2022).
pEC50: −log10 of the molar value.

Assays:
DRD2 [1] = molecular target: T1, DRD2 (Homo sapiens, UniProt P14416); test: Western blot analysis of DRD2-probe binding with competition by parent pharmacophore; set-up: expressed in transfected cells; settings: probe 100 nm; for competition with parent pharmacophore (Western blot): competitor (ropinirole or pramipexole) 50 μM; for photo-cross-linking / colocalization with DRD2 band (Western blot): membrane fraction enriched via Strep Tag II
T1 sequence (P14416 whole entry): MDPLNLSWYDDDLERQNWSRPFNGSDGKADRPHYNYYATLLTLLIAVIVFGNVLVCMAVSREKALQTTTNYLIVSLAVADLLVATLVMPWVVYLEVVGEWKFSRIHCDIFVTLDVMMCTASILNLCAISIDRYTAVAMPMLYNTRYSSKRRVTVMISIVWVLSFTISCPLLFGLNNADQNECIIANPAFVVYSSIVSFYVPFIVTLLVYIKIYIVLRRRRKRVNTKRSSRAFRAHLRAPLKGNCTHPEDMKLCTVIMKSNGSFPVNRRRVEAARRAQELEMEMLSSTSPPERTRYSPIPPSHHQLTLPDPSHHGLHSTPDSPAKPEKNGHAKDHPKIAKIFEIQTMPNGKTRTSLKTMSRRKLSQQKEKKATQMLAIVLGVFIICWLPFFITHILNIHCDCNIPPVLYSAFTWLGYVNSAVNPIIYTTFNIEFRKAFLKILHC
Description: To observe the photo-cross-linking of DRD2 at the protein level, we analyzed the colocalization of DRD2 by clicking a fluorophore on the probe and performing Western blots. We further observed the competition with the parent pharmacophore of each probe and the ability of a negative control benzophenone (16) to cross-link to DRD2. Our DRD2-expressing cells or unmodified 293T cells (control group) were suspended in media, treated with the probe at a 100 nm concentration, and photo-cross-linked. The cells were then lysed, and the membrane fraction was separated and enriched for DRD2 by pulldown of the Strep Tag II fusion using magnetic beads. After “clicking” a fluorescent tag to the probe, the membrane fraction was run on an SDS-PAGE gel, transferred to a nitrocellulose membrane, and treated with antibodies against DRD2 and Strep Tag II. […] We also observed many nonspecific binding bands for the probe, which is consistent with our other studies, as well as the observations of the field when it relates to photo-cross-linking groups. […] With this confirmation, we proceeded to proteomic analysis of probe interactions.
Figure 6 Photo-cross-linking of probes 5 and 7 to DRD2 visualized with Western blot. Lanes 1–5 correspond to samples with probe 5 at 100 nm, lanes 6–10 correspond to samples treated with probe 7 at 100 nm, and lanes 11–14 correspond to samples treated with negative control probe 16. Lanes: 1, 6, and 11 are the anti-DRD2 antibody channel, lanes 2, 3, 7, 8, and 12 are fluorescence of the Alexa Fluor 555 clicked to the probes 5, 7, or 16, lanes 4, 9, and 13 are the anti-Strep Tag antibody channel, and lanes 5, 10, and 14 are the overlaid channels for the respective probes.
A stable HEK293T-derived cell line-expressing DRD2-Strep Tag II fusion was maintained in DMEM supplemented with 10% FBS, 100 U/mL penicillin, and 100 μg/mL streptomycin in a humidified atmosphere at 37 °C in 5% CO2. Cells were plated at a density of 4 × 10^4 cells/cm^2 in T300 tissue culture flasks (CellTreat) and allowed to grow to an 80% confluency. At confluency, media was removed and cells were washed once with cold HBSS, followed by incubation for 15 min in cold HBSS with 0.53 mM EDTA. Following incubation, cells were scraped off of the bottom of the flask and the cell suspension was transferred to a 15 mL conical tube and then pelleted at 500g for 5 min. The supernatant was removed, and the cell pellet was resuspended in HBSS followed by centrifugation at 500g for 5 min. […] The supernatant of the cell pellet was removed, and the cells were resuspended in probe solution and incubated at room temperature for 2 min followed by centrifugation at 500g for 5 min. The cell pellet was resuspended in either HBSS or 50 μM competitor solution in HBSS and irradiated with a 365 nm UV lamp (8 W, 2 cm distance) for 30 min at room temperature. The cells were then pelleted at 500g for 5 min, and the supernatant was removed. Membrane fractionation was performed following the MEM-PER Membrane Protein Extraction Kit (Thermo). The solubilized membrane fraction was incubated with hydrophilic streptavidin magnetic beads (NEB) for 1 h at room temperature. The flow-through was removed, and the beads were washed twice with PBS. […]

DRD2 [2] = molecular target: T1, DRD2; test: PRESTO-TANGO β-arrestin recruitment assay (HTLA cells transfected with DRD2-TANGO, luciferase readout); assay type: cell-based; set-up: TEV protease site and fused transcription factor (TANGO module); expressed in transfected cells; host or cells: HTLA cells (gift of G. Barnea), transiently transfected; settings: for activity in β-arrestin recruitment (in words): PRESTO-TANGO; for pEC50: PRESTO-TANGO β-arrestin recruitment, luciferase activity, Hill slope of 1.0; for difference in potency of probe vs parent compound: β-arrestin recruitment, probes vs their parent compounds
Description: To characterize the response of the β-arrestin effector pathway to our ligands, we used the Parallel-Receptor-ome Expression and Screening via Transcriptional Output TANGO (PRESTO-TANGO) assay developed in the Roth lab.[44],[45] This assay uses luciferase activity to monitor β-arrestin recruitment by DRD2 (Figure 3a).
Figure 3 β-Arrestin recruitment analysis. (a) PRESTO-TANGO assay schematic: a ligand binds a chimeric DRD2 receptor, which then recruits β-arrestin fused with a TEV protease. The protease cuts a site between the receptor and a fused transcription factor, which then transits to the […] to initiate transcription of a luciferase gene. The luciferase activity is subsequently quantified.
HTLA cells were a gift from the laboratory of G. Barnea and were maintained in DMEM supplemented with 10% FBS, 100 U/mL penicillin, 100 μg/mL streptomycin, 2 μg/mL puromycin, 100 μg/mL hygromycin B, and 100 μg/mL G418 in a humidified atmosphere at 37 °C in 5% CO2. On day 1, cells were plated at a density of 1 × 10^5 cells/cm^2 in a black wall, clear-bottom 96-well plate (Nunc). The following day (day 2), cells were transfected with a 10× solution of 3:1 mixture of DRD2-TANGO/Optifect Transfection Reagent (Thermo) in unsupplemented DMEM. On day 3, 1× drug stimulation solutions were prepared in filter-sterilized unsupplemented DMEM. The transfection media was shaken or aspirated from the wells, and drug stimulation solutions were gently added. On day 4, drug solutions were removed from one well every 10 s (to maintain consistency of incubation time) and 50 μL per well of Bright-Glo solution (Promega) diluted 20-fold in HBSS was added. After incubation for 2 min at room temperature, luminescence was counted with an integration time of 10 s in a Spectramax i3x plate reader (Molecular Devices).

C#CCOc1ccc(C(=O)c2ccc(CNCCc3cccc4c3CC(=O)N4)cc2)cc1 [Compound 5, 4-(2-((4-(4-(Prop-2-yn-1-yloxy)benzoyl)benzyl)amino)ethyl)indolin-2-one]
competition with parent pharmacophore (Western blot) (DRD2 [1]): greatly diminish the binding
photo-cross-linking / colocalization with DRD2 band (Western blot) (DRD2 [1]): binding to the DRD2 receptor
activity in β-arrestin recruitment (in words) (DRD2 [2]): low micromolar activity
pEC50 (DRD2 [2]): 5.88
difference in potency of probe vs parent compound (DRD2 [2]): ~1000 ×

C#CCOc1ccc(C(=O)c2ccc(CN[C@H]3CCc4nc(N)sc4C3)cc2)cc1 [Compound 7, (S)-(4-(((2-Amino-4,5,6,7-tetrahydrobenzo[d]thiazol-6-yl)amino)methyl)phenyl)(4-(prop-2-yn-1-yloxy)phenyl)methanone]
competition with parent pharmacophore (Western blot) (DRD2 [1]): greatly diminish the binding
photo-cross-linking / colocalization with DRD2 band (Western blot) (DRD2 [1]): binding to the DRD2 receptor
activity in β-arrestin recruitment (in words) (DRD2 [2]): low micromolar activity
pEC50 (DRD2 [2]): 6.00
difference in potency of probe vs parent compound (DRD2 [2]): ~1000 ×
